According to US12606559B2, “JAK inhibitor compounds, methods for synthesizing same and use thereof” (GALDERMA HOLDING SA, priority 2020, dated 2026):
Values joined by “and” are separate entries in the source; they are usually repeats but may differ in a detail not shown here. Identical values can stand only once. Like-named read-outs stand apart in the source and are kept apart here.

Key:
[1] = Protein binding analysis (RED), minipig plasma; type: in vitro ADME; conditions: male, Gottingen, pH 7.4, RED 4 h, read-out: minipig FU
Description: (§1) The protein binding was assessed in plasma of Human, male balb-c mice, male Wistar Han rat, male Gottingen minipig by rapid equilibrium dialysis (RED) devices. After the plasma and buffer phosphate 50 mM pH7.4 were equilibrated at 37° C., the compound was added to plasma to reach a final concentration of 5 μM. An aliquot of plasma was withdrawn immediately. Equilibration under mild agitation was continued for 4 h. The plasma and buffer were sampled and samples were quenched with 4 volumes of acetonitrile and centrifuged. Supernatant was quantified in HPLC/MS/MS to calculate the recovery and the percentage of compound dissolved in the buffer (unbound) and bound to plasma proteins.

[2] = Chrom logD pH 7.4; type: physicochemical
[3] = Intrinsic clearance in rat hepatocytes; type: in vitro ADME, male Wistar Han rats; conditions: 2.5 μM
Description: (§2) The intrinsic clearance was assessed in cryopreserved Hepatocytes obtained by Human livers donors of mix gender pooled together, male balb-c mouse, male Wistar Han rats and male Göttingen minipig, by looking at the parent compound disappearance. The incubations were performed using a final concentration of viable cells of 1 million/ml (viability above 70%) and test item of 2.5 μM. Incubations were followed up to 2 h. Aliquotes were withdrawn at different time points and reaction quenched with acetonitrile. After centrifugation the supernatant was analyzed by HPLC/MS to quantify the remaining amount of parent in comparison with time 0. The clearance was calculated by fitting the log of the percentage remaining with Graphpad Prism ver.7.

[4] = target: T1, CYP2D6 (Homo sapiens, UniProt P10635); test: CYP2D6 inhibition in human liver microsomes; type: in vitro ADME; conditions: dextromethorphan
T1 construct: assessed in Human pooled liver microsomes of mixed gender; from tissue; host or cells: human pooled liver microsomes
T1 sequence (P10635 whole entry): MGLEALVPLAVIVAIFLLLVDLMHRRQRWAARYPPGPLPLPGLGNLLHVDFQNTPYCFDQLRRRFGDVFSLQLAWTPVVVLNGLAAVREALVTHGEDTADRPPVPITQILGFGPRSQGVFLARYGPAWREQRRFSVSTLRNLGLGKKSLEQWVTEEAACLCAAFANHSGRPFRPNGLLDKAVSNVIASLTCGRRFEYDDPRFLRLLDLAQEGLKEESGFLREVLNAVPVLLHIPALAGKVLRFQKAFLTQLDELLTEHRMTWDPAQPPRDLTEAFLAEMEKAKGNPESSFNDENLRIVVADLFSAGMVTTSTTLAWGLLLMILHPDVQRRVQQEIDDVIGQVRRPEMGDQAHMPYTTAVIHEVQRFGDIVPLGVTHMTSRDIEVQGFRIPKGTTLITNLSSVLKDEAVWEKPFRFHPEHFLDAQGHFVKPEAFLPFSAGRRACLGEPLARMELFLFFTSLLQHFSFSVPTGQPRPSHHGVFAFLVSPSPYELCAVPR
Description: After 5 min at 37° C. incubations were started with NADPH and prolonged for 10 min. The test compound was tested up to 30 μM keeping the final concentration of organic solvent was below 0.5%. The final concentration of microsomes was 0.1 mg/ml to ensure linearity during the time of the incubation. The reaction was quenched by adding 3 volume of acetonitrile. After centrifugation the supernatant was analyzed by HPLC/MS/MS for the formation of des-methyldextromethorphane selectively produced by CYP2D6 and 1′hydroxymidazolam or 6β-hydroxytestosterone, selectively produced by CYP3A. IC50 was calculated with Graphpad Prism v.7 comparing the amount of metabolite produced in presence of the test compound with that produced in absence of test item.

[5] = Human skin ex vivo: flux through skin and dermis concentration (Franz cells); type: in vitro ADME; conditions: PG/H2O cream 1 mg/mL
[6] = target: T2, CYP3A4 (Homo sapiens, UniProt P08684); test: CYP3A inhibition in human liver microsomes; type: in vitro ADME
T2 construct: assessed in Human pooled liver microsomes of mixed gender; from tissue; host or cells: human pooled liver microsomes
T2 sequence (P08684 2-503): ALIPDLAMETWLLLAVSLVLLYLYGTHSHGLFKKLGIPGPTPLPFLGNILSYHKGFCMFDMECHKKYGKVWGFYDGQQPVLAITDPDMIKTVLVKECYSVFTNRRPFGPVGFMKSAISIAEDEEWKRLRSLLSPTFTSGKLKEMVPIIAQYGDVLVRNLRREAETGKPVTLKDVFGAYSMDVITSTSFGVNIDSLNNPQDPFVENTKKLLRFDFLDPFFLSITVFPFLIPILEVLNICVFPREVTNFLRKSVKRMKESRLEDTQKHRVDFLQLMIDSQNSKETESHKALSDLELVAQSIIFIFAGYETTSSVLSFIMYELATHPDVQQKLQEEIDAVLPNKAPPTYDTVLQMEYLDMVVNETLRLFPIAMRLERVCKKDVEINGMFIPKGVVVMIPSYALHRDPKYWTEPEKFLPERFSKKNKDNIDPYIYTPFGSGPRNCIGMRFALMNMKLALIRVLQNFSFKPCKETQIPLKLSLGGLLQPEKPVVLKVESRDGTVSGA

[7] = Protein binding analysis (RED), rat plasma; type: in vitro ADME, male Wistar Han rat; conditions: 5 μM, RED 4 h
Description: as §1

[8] = SF logD; type: physicochemical
[9] = Thermodynamic solubility PG_H2O pH 6 2/8; type: physicochemical; conditions: PG/H2O 2/8, pH 6
[10] = Protein binding analysis (RED), human plasma; type: in vitro ADME; conditions: 5 μM, RED 4 h
Description: as §1

[11] = Intrinsic clearance in human hepatocytes; type: in vitro ADME; conditions: 2.5 μM
Description: as §2

[12] = test system: Salmonella typhimurium TA98 and TA100; test: Mini Ames assay (TA98 and TA100); type: cell-based; conditions: for AMES: TA98 and TA100, with and without S9; for increase in the mean number of revertants: TA98 and TA 100 with or without metabolic activation
Source text: The Ames test in micro-method (in 6-well plates=mini Ames) follows the general principles of the standard Ames's technique. The Ames test used strains of bacteria Salmonella typhimurium that carry mutations in the genes involved in histidine synthesis. These strains are auxotrophic mutants, they require histidine for growth but cannot produce it. The assay was used to observe the ability of the test item to induce reverse mutations allowing the bacteria to grow in a histidine-free medium. The number of bacteria that revert and acquire the wild-type ability to grow in the absence of histidine can be estimated by counting the colonies that develop upon incubation. The use of different strains allows the identification of different mechanisms of gene mutation (TA98 for detection of frameshift mutations and TA100 for detection of base pair substitutions).
In a number of cases, the test item itself is not directly mutagenic but its metabolic derivatives are.
A toxicity assessment was performed on complete nutriment agar plate (with histidine) to define the highest concentration to be used in the genotoxicity assay. Solutions were prepared in 100% DMSO. The first concentration analyzed in the well (6-well plate) was 500 μg per plate followed by 7 serial dilutions (2 times factor of dilution). Each concentration was tested in triplicate on each strain and for each condition of treatment. The viability of the positive and negative controls was analyzed for each strain, in the presence or absence of metabolic activation system, and were compared with historical data to validate the study. If no bacterial toxicity occurred, the highest concentration tested for genotoxicity was […]. If toxicity occurred, a viability above than 70% defined the highest concentration tested.
The genotoxicity assessment was performed on minimal agar plate (without histidine) following the same dilution procedure as for the cytotoxicity assessment. DMSO and phosphate buffer controls were used as negative controls. 2-Nitrofluorene (2NF), 2-Aminoanthracene (2AA) and 4-Nitro-1.2 phenylenediamine (DANB) were selected as positive controls.
Test items, positive and negative controls were incubated with the 2 bacterial strains. After 48 h incubation at 37° C. with and without metabolic activation (S9), the prototrophic mutant colonies that had grown on the plates were counted. The results were expressed as the mean number of revertants for each condition tested (3 replicates each) and for each concentration of the test item and controls. Induction ration, corresponding to the ratio of revertants in presence of test item versus spontaneous revertant, was determined for each concentration.

[13] = test system: panel of 403 kinases; test: Kinase selectivity scores S35 / S1 @ 10 μM (403 kinases); type: binding
[14] = Protein binding analysis (RED), mouse plasma; type: in vitro ADME, male balb-c mice; conditions: 5 μM, RED 4 h
Description: as §1

[15] = Intrinsic clearance in mouse hepatocytes; type: in vitro ADME, male balb-c mouse; conditions: 2.5 μM
Description: as §2

[16] = target: T3, hERG (Human Ether-a-go-go Related Gene) channel in CHO-K1 cells (Homo sapiens, UniProt Q12809); test: In vitro hERG channel, whole cell patch clamp; type: cell-based; conditions: up to 30 μM
T3 construct: expressed in transfected cells; host or cells: CHO-K1
T3 sequence (Q12809 whole entry): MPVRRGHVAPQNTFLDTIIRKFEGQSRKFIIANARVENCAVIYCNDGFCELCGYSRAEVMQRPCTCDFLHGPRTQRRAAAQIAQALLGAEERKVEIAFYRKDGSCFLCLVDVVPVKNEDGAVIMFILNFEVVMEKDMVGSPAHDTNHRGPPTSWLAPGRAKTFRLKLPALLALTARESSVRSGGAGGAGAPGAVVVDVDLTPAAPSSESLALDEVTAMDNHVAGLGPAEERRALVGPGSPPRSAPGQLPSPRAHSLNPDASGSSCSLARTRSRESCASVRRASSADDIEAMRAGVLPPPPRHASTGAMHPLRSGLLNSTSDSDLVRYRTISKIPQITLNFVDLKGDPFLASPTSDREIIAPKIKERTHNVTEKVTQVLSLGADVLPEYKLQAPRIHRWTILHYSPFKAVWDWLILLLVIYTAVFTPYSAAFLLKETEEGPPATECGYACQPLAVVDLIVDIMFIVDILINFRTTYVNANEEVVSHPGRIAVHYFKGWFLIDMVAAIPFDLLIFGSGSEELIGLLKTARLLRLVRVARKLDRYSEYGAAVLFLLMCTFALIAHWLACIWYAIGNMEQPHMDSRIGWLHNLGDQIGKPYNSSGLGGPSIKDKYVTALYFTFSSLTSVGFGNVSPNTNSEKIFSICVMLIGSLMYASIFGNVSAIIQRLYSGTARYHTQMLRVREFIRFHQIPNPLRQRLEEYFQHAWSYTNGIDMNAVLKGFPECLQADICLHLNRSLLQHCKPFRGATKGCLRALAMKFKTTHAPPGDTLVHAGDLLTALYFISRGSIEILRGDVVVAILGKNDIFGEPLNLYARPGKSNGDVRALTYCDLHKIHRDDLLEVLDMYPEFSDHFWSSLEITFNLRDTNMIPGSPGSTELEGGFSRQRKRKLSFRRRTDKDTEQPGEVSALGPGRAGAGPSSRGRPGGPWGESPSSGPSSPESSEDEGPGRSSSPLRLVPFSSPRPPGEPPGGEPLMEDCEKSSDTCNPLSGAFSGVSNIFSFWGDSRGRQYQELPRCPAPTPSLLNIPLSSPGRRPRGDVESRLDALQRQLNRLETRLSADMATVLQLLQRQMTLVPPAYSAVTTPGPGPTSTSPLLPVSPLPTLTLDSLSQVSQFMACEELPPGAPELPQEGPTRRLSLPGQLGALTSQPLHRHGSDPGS
Description: Blockade of the delayed rectifier potassium current (IKr) encoded by hERG gene (human ether a go go-related gene) can lead to QT interval prolongation and is therefore investigated as part of the cardiac risk assessment. This channel is critical for the repolarisation of the cardiac membrane. The effect of the compounds on IKr was assessed by whole cell patch clamp in stably transfected CHO-K1 cells expressing hERG (Human Ether-a-go-go Related Gene) channel following superfusion at different concentrations up to 30 μM.

[17] = midazolam, read-out: IC50 CYP3A4 mid.
[18] = testosterone, read-out: IC50 CYP3A4 testo.

SMILES	fraction unbound at 4 h, 5 μM [1]	chromatographic logD [2]	Intr. Clear. rheps [3] [microL/min/10 6 cells]	IC50 [4] [µM]	dermis concentration [5] [µM]	measured flux 6-24 hr [5] [ng/cm^2/hr]	IC50 [6, 17] [µM]	IC50 [6, 18] [µM]	rFU [7] [%]	logD [8]	Thermodynamic sol PG_H2O pH 6 2/8 [9]	hFU [10] [%]	Intr. Clear. h heps [11] [microL/min/10 6 cells]	AMES [12]	increase in the mean number of revertants [12]	Selectivity @ 10 μM: number of kinases out of 403 [13]	mFU [14] [%]	Intr. Clear. mheps [15] [microL/min/10 6 cells]	IC50 [16] [µM]
CC1(C)CCN(C(=O)C[C@H]2C[C@@H](Nc3c(C#N)cnc4[nH]ccc34)C2)CC1 [Compound A, 4-(((cis)-3-(2-(4,4-dimethylpiperidin-1-yl)-2-oxoethyl)cyclobutyl)amino)-1H-pyrrolo[2,3-b]pyridine-5-carbonitrile]	0.1	2.7	> 152	25	0.25	2.5	3.6	1.5	3.6	3.7	454 microM and 0.17 mg/mL	4.4	264	Neg/Neg	did not induce a biologically significant increase	24/403	5.2	215	> 30
CC1CCN(C(=O)C[C@H]2C[C@@H](Nc3c(C#N)cnc4[nH]ccc34)C2)CC1 [Compound B, 4-(((cis)-3-(2-(4-Methylpiperidin-1-yl)-2-oxoethyl)cyclobutyl)amino)-1H-pyrrolo[2,3-b]pyridine-5-carbonitrile]	0.083	2.2	134	25	0.9	2.4	9.4	5.6	2.8	3.1	223 microM and 0.08 mg/mL	5.6	147	Neg/Neg	did not induce a biologically significant increase	19/403	5.1	> 300	> 30
